According to article PMC12090809 (Journal of Virology, 2025):
Entries after “also recorded” stand apart in the source; their conditions may differ.

What was measured:
SHIV AD8-EO [1] = experiment: Plasma viral loads (RT-qPCR) in SHIV AD8-EO-infected RMs during BNM-III-170 treatment; format: in vivo, Macaca mulatta
Description: Next, we evaluated the ability of BNM-III-170 to reduce viral replication in these animals, measuring plasma viral loads (PVLs) at multiple timepoints during and immediately following each BNM-III-170 treatment cycle. PVLs declined by 0.92 logs in animal 14C056 following the 3 × 36 mg/kg, 3-day interval treatment cycle (between 0 h of the first dose and 9 days post third dose). […] Importantly, given the small number of animals and absence of untreated controls, it is difficult to determine if the observed reduction in PVLs in animal 14C056 was due to BNM-III-170 treatment or to the natural course of SHIV AD8 EO-infection. This highlights the need for additional, larger studies that include an untreated control arm to more accurately determine the virologic impact of BNM-III-170 on SHIV in vivo.
Plasma SHIV viral loads (SHIV-RNA copies/mL) were determined as previously described ([61]) using quantitative reverse transcription PCR (RT-qPCR) assays with a limit of detection of 60 copies/mL.

SHIV AD8-EO [2] = experiment: Viral infectivity / neutralization assay in TZM-bl cells with SHIV variants; conditions: virus incubated with BNM-III-170 (Fig. 2A)
Description: The viral neutralization assay was done as previously described ([56]). Briefly, TZM-bl target cells were seeded at a density of 1 × 10^4 cells/well in 96-well luminometer-compatible tissue culture plates (Perkin-Elmer Life Sciences, Waltham, MA) 24 h before infection. Then, 100 µL portions of recombinant viruses was incubated with the indicated amount of mAbs, plasma, BNM-III-170, or a mixture of mAbs and BNM-III-170 for 1 h at 37°C and then added to the target cells. After incubation for 48 h at 37°C, the medium was removed from each well, and the cells were lysed by the addition of 30 µL of passive lysis buffer (Promega) and three freeze-thaw cycles. An LB 941 TriStar luminometer (Berthold Technologies) was used to measure the luciferase activity in each well after the addition of 100 µL of luciferin buffer (15 mM MgSO4, 15 mM KPO4 [pH 7.8], 1 mM ATP, and 1 mM dithiothreitol) and 50 µL of 1 mM D-luciferin potassium salt (Prolume).

[3] = Plasma pharmacokinetics of BNM-III-170 in SHIV AD8-EO-infected RMs (HPLC-MS/MS); format: in vivo, Macaca mulatta
Description: Plasma concentrations of BNM-III-170 in SHIV-infected animals were measured via liquid chromatography and mass spectrometry at several timepoints following each BNM-III-170 dose for all treatment cycles.

[4] = tested on: SHIV AD8-EO-infected rhesus macaques; experiment: Safety of subcutaneous BNM-III-170 dosing regimens in SHIV AD8-EO-infected RMs; format: in vivo, Macaca mulatta; conditions: for Blood chemistries / Clinical signs: SHIV AD8-EO-infected RMs, one line per animal; for ALP: normal range 83–363 U/L
[5] = tested on: CH058TF-infected CEM.NKr cells; format: cell-based, HIV-1
Description: To assess the ability of bioavailable BNM-III-170 to induce conformational changes in HIV-1 Env, we assessed the capacity of the Abs naturally elicited in these infected RMs to recognize HIV-1-infected cells before and after BNM-III-170 administration. Plasma from treated animals was incubated with CH058TF-infected CEM.NKr cells, and the ability to recognize infected cells was measured by flow cytometry. […] Importantly, as observed in uninfected RMs, plasma levels of BNM-III-170 in treated, SHIV-infected RMs closely mirrored the kinetic curves for plasma binding.
Cell surface staining was performed at 48 h post-infection. Mock-infected or HIV-1-infected CEM.NKr or primary CD4+ T cells were incubated for 45 min at 37°C with anti-Env mAbs (5 µg/mL), plasma from PWH (1:1,000 dilution), or plasma from infected RMs (1:500). When indicated, antibody/plasma incubation was done in the presence of 50 µM of BNM-III-170, or equivalent amounts of DMSO. To evaluate the capacity of plasma from SHIV-AD8-EO-infected RMs treated with BNM-III-170 to recognize HIV-1-infected cells, a 1:10 plasma dilution was used. Cells were then washed twice with PBS and stained with the appropriate Alexa Fluor 647-conjugated secondary antibody (2 µg/mL) for 20 min and the viability dye AquaVivid (Thermo Fisher Scientific) at room temperature. […]

[6] = 36 mg/kg SQ, 2 doses, dosing interval 1 day, 36 mg/kg
[7] = 36 mg/kg SQ, 3 doses, dosing interval 3 days, 36 mg/kg
[8] = animal 14C013 at necropsy, 2 × 36 mg/kg SQ every 24 h

CNCc1ccc2c(c1)C[C@H](CN=C(N)N)[C@H]2NC(=O)C(=O)Nc1ccc(Cl)c(F)c1.O=C(O)C(F)(F)F.O=C(O)C(F)(F)F [BNM-III-170]
decline in plasma viral loads (PVLs) (SHIV AD8-EO [1]; animal 14C056, 3 × 36 mg/kg SQ, 3-day interval, between 0 h of first dose and 9 days post third dose, no untreated controls): 0.92 logs | change in plasma viral loads (PVLs) (SHIV AD8-EO [1]; animals 14C013, RYj17, 34901, following BNM-III-170 treatments): no similar changes in PVLs were observed | effect on SHIV AD8-EO infectivity (SHIV AD8-EO [2]): directly decrease SHIV AD8-EO infectivity | Cmax ([3]; SHIV AD8-EO-infected RMs, following first dose of each treatment cycle (24 or 36 mg/kg SQ)): 4100 to 12800 ng/mL | plasma BNM-III-170 level between doses ([3]; SHIV-infected RMs, 36 mg/kg once every 3 days): below the limit of detection | plasma level 6 h after each dose ([3]; SHIV-infected RMs, all treatment cycles, generally): > 675 ng/mL | Blood chemistries ([4]; 24 mg/kg SQ, 1 dose, 24 mg/kg): Transient elevation of CPK, troponin I | Blood chemistries [4, 6]: Elevated AST, ALT, amylase, CPK, troponin I; also recorded: Transient elevation of ALP, CPK, troponin I | Clinical signs [4, 6]: pale mucus membranes, weak femoral pulses, and dyspnea; also recorded: Animal experienced acute respiratory distress and tachycardia at 6 hr post dose #2 and was sacrificed; inconclusive path report, pale liver noted; also recorded: Enlarged liver and spleen, lesion at BNM-III-170 injection site | Blood chemistries [4, 7]: Transient elevation of AST, ALT, CPK; also recorded: Elevated BUN, BUN/Cr, CPK; low potassium | Clinical signs [4, 7]: mild erythema at the BNM-III-170 injection sites; also recorded: Animal reached endpoint criteria (weight loss > 25%) due to chronic diarrhea that started prior to CD4mc treatments, animal sacrificed 3 hr post dose #2 | Blood chemistries ([4]; 36 mg/kg SQ, 3 doses, dosing interval 7 days, 36 mg/kg): Transient elevation of AST, ALP, TRIG, CPK; also recorded: Transient elevation of AST, ALT, ALP, CSK; also recorded: Transient elevation of Glob, ALT, ALP, GGT, AMY, CPK | adverse reactions ([4]; SHIV-infected RMs 14C056 and 34901, 1 × 24 mg/kg SQ): No adverse reactions were observed | clinical signs of toxicity ([4]; SHIV-infected RMs, 36 mg/kg SQ doses at 7-day dosing interval): no clinical signs of toxicity were noted | ALT [4, 8]: 123 U/L | AST [4, 8]: 145 U/L | troponin I [4, 8]: 0.28 ng/mL | amylase ([4]; animal 14C013 at necropsy, 2 × 36 mg/kg SQ every 24 h, normal range 148–316 U/L): 421 U/L | AST ([4]; animal 14C056, 24 h after dose 3, 36 mg/kg SQ every 3 days): 109 U/L | troponin I ([4]; animal 34901, 6 h post-dose, 1 × 24 mg/kg SQ, resolved by 5 days post-treatment): 0.090 ng/mL | potassium ([4]; animal 34901 at necropsy (3 h after dose 2, 36 mg/kg SQ every 3 days), 2.4 vs 2.8 at 0 h of cycle, normal range 3–5 mmol/L): 2.4 mmol/L | blood urea nitrogen ([4]; animal 34901 at necropsy (3 h after dose 2, 36 mg/kg SQ every 3 days), 34 at 0 h of cycle, normal range 9–27, likely due to prolonged diarrhea): 28 mg/dL | ratio of blood urea nitrogen to creatinine ([4]; animal 34901 at necropsy (3 h after dose 2, 36 mg/kg SQ every 3 days), 37.8 at 0 h of cycle, normal range 12.5–33.3): 35 | troponin I ([4]; animal RYj17, 6 h after dose 1 of 2 × 36 mg/kg SQ every 24 h, resolved by 24 h): 0.049 ng/mL | ALP ([4]; animal RYj17, 24 h after dose 2 of 2 × 36 mg/kg SQ every 24 h): 405 U/L | ALP ([4]; animal RYj17, 16 days later (after 24 h post dose 2), 2 × 36 mg/kg SQ every 24 h): 715 U/L | association of BNM-III-170 plasma concentrations with plasma binding to infected cells ([5]; each treatment cycle, Spearman correlation): correlated with plasma binding to infected cells | time post-administration up to which RM plasma efficiently recognized infected cells ([5]; plasma from treated SHIV-infected RMs, depending on the dose used): up to 6 h
